According to patent US8124408B2, “Preparation of inactivated artificial antigen presenting cells and their use in cell therapies” (Janssen Pharmaceutica N.V., priority 2006, dated 2012):
Like-named read-outs stand apart in the source and are kept apart here.

Columns and labels:
[1] = system: CD8^+ T cells; test: APC function of glutaraldehyde-fixed Drosophila xAPCs; type: cell-based; settings: xAPCs fixed with 0.3% glutaraldehyde
Source text: Inactivation of Drosophila cells was initially attempted with glutaraldehyde fixation in the absence of preservative.

[2] = system: baculovirus; test: baculovirus/Sf9 infectivity assay; type: cell-based; settings: for Virus Titer (10^−4) / Virus Titer (10^−5): UVADEX 5 μg/ml, virus added, Sf9 cells, triplicate
Procedure: A baculovirus/Sf9 infectivity assay was used to determine if psoralen-derivative/UVA treatment was sufficient to inactivate viruses associated with virus-infected insect cells. Sf9 insect cells were infected with BacPAK6 viral stock and incubated at room temperature for one hour (BacPAK6 baculovirus rapid titer kit; BD Biosciences Clontech). […] Five days after irradiation, culture supernatants were collected. From these, new viral stocks were prepared via serial dilutions of 10^−3, 10^−4 and 10^−5, respectively. These serially diluted stock dilutions were each used to infect a second set of fresh (i.e., not previously infected) Sf9 cell cultures. This second set of cultures was overlaid with methylcellulose and grown for approximately 48 hours. Culture supernatants of this second set of cultures were discarded and a mouse monoclonal anti-gp64 (baculovirus-specific) protein antibody (Invitrogen) was added. After an inbubation period and several washes to remove unbound anti-gp64 antibody, a goat-anti-mouse polyclonal antibody conjugated to horseradish peroxidase (i.e., secondary antibody obtained from Invitrogen) was added. Unbound secondary antibody was removed with several washes, and […] was added. The number of stained foci was counted and the virus titer (pfu/ml) was calculated according to the manufacturer's instructions.

[3] = system: Drosophila clone B xAPCs; test: xAPC proliferation, viable cell count by trypan blue staining; type: cell-based
Source text: (§1) Viable (i.e., live) xAPCs were counted on day 1, day 5, day 9, day 14, and day 16 post-treatment by trypan blue staining of each culture.
as §1

[4] = system: baculovirus; test: baculovirus titer by rapid microtiter assay after UVADEX/UVA treatment of infected Sf9 cells; type: cell-based; settings: UVADEX 5 μg/ml
Procedure: The treated cells were then cultured at 28° C. for 4 days. Cultured supernatant was collected and used to infect fresh, uninfected cultures of Sf9 cells seeded in 96-well plates. Baculovirus present in these Sf9 cultures was detected by a rapid microtiter assay (Invitrogen) using a gp64-specific antibody, and baculovirus titers were calculated.
In a similar experiment, Sf9 cells were infected with the titrated doses of baculovirus as described above. […] The treated cells were then cultured at 28° C. for four days. The culture supernatant was collected and used to infect a new culture of Sf9 cells seeded in 96-well plates. Baculovirus in the Sf9 cells was detected by a rapid microtiter assay (Invitrogen). The culture plates were overlaid with methylcellulose and cultured for 48 hrs. Baculovirus was detected by immunoassay with a gp64-specific antibody (Invitrogen). The number of foci in each well was counted and the virus titer (pfu/ml) of the supernatant of the infected cells was calculated according to the manufacturer's instructions.

[5] = system: lytic virus associated with Drosophila xAPCs; test: infectivity of xAPC viral stock on Drosophila clone D indicator cells; type: cell-based
Procedure: Thus, a xAPC culture containing approximately 6×10^8 Drosophila xAPCs (clone B) was collected, suspended in 0.6 ml Schneider's media on ice, and sonicated for 30 seconds. Cell debris was pelleted by centrifugation, and the supernatant collected and layered onto a cesium chloride (CsCl) cushion, which was at a density of 1.2 (20% w/w CsCl), at a ratio of three volumes of supernatant to one volume of CsCl. The supernatant-loaded CsCl cushion was then ultracentrifuged at 25,000 rpm for four hours. Viral fractions were collected and the fraction densities measured. Three milliliter fractions at a density of 1.0 to 1.2 were pooled and dialyzed against phosphate-buffered saline (PBS), generating a viral stock, and the viral stock stored at −80° C. until use. […] Independent cultures (1×10^6 cells/culture) of the Drosophila clone D indicator cell line were incubated at 28° C. with either the treated and untreated viral aliquots. After a three-day incubation period, the indicator cell cultures were harvested and stained with propidium iodide (PI) (1 μg/1×10^6 cells) at 4° C. for 10 minutes. The live and lytic cells were analyzed by FACS, with the results depicted in FIGS. 4A-4C.
After a three-day incubation period, the percentage of viable cells was quantified in each indicator cell line culture. […]

[6] = system: CD8^+ T cells; test: K^b/OVA8 tetramer staining of mouse CD8+ T cells activated with xAPCs; type: cell-based, mice
Procedure: Lanes 1 and 2, percentage of stained CD8^+ T cells isolated form and activated from wild type mice (B6), as described in FIG. 8A (performed as a positive control).
IL-2 was added on day three and day five of the xAPC/naïve CD8^+ T cell coculture. The coculture was split on day seven of the coculture period, and on day nine the cultured CD8^+ T cells were collected. An OVA8/MHC tetramer (Beckman Coulter) preparation was prepared and 10 μl was mixed with 1×10^6 CD8^+ T cells/100 μl of FACS buffer (0.5% BSA, 0.2%, NaN3 in PBS). The K^b/OVA8 tetramers consisted of four MHC molecules bound to the OVA8 peptide, which was conjugated to a fluorescent protein. The mixture was incubated at room temperature for 30 minutes and washed in PBS, and then spun down at 400×g for 5 minutes. The cell pellet was resuspended in FACS buffer (500 μl) and immediately read on a FACScan flow cytometry machine at an excitation wavelength of 486 nm-580 nm and an emission wavelength of 586 nm-590 nm.

[7] = system: HLA-A2, B7-1, and ICAM-1; test: FACS of exogenous molecules in xAPC clone B/clone D cocultures; type: cell-based, Drosophila; settings: UVADEX/UVA 5 μg/ml, 10 weeks coculture with clone D
Procedure: (§2) FACS analysis was carried out by independently using antibodies specific for human HLA, human B7.1, and ICAM-1, as indicated.
For comparison, γ-radiation-treated xAPC clone B/clone D cocultures and untreated xAPC clone B/clone D cocultures were analyzed by FACS as well.
The cells from each culture were washed and then and cocultured with clone D indicator cells for 10 weeks. The cocultured cells were collected and aliquoted, and each aliquot was stained with one of HLA-A2, B7-1, and ICAM-1 fluorescein isothiocyanate (FITC)-conjugated monoclonal antibodies (mAbs), respectively. The stained cocultures were then analyzed by FACS.

[8] = system: HLA-A2, B7-1, or ICAM-1; settings: UVADEX 5 μg/ml, UVA 0, 5 or 15 minutes
Procedure: as §2
The xAPC cultures were washed and stained with monoclonal antibodies specific for HLA-A2, B7-1, or ICAM-1 and analyzed by FACS.

[9] = system: CD8^+ T cells
Source text: Human rIL-2 (20 units/ml) and rIL-7 (30 units/ml) were each added to the culture at day 5. The CD8^+ T cells were restimulated twice on the seventh and fifteenth days of the culture period with non-CD8 adherent cells in PBMC from the same donor in the presence of the MART-1 peptides. The expanded CD8^+ T cells were then stained with MART-1 tetramers (Beckman Coulter) consisting of four MHC molecules bound to the MART-1 peptide, which was conjugated to a fluorescent protein, and analyzed by FACS.

[10] = system: xenogenic HLA A2.1, B7-1, B7-2, and β2m transcripts; test: RT-PCR of xenogenic nucleic acid transcription in xAPC/clone D cocultures; type: cell-based, Drosophila; settings: UVADEX 5 μg/ml and UVA 5, 15 or 30 minutes, 10 weeks coculture with clone D
Source text: RT-PCR products were then visualized by agarose gel electrophoresis.
It was possible that xenogenic nucleic acid introduced into the xAPCs might have remained active, even though the xAPCs themselves were rendered nonproliferative. […] Each culture of xAPCs was washed and cocultured for 10 weeks with an indicator Drosophila cell line designated herein as clone D, which is a cell line that has not been modified by introduction of xenogenic nucleic acid. Reverse transcriptase (RT)-PCR reactions using primers specific for xenogenic HLA A2.1, B7-1, B7-2, and β2m transcripts were then performed on extracts of the cocultures.

[11] = UVA irradiation time 10 minutes

## O=CCCCC=O [glutaraldehyde]
[1]
  CD8^+ T cell activation, less than unfixed cells: 2 fold
  antigen-specific proliferation of CD8^+ T cells, less than unfixed cells: 2.5- to 6 fold
  generation of CD8^+ T cells capable of lysing target cells: to a lesser degree than unfixed cells

## COc1c2occc2cc2ccc(=O)oc12 [UVADEX, 9-methoxy-7H-furo[3,2-g]-1-benzopyran-7-one]
[2]; 5 mcg/ml 8-MOPs, UVA 320-380 nm for 5 minutes, infected Sf9 cells
  infectious virus in viral stock obtained in the supernatant: does not contain infectious virus
[2]; UVA irradiation time 5 minutes
  Virus Titer (10^−4): 0
  Virus Titer (10^−5): 0
[2]; [11]
  Virus Titer (10^−4): 0
  Virus Titer (10^−5): 0
[3]; 8-MOPs plus 1 Joule/cm^2 for 2 minutes
  inactivation of Drosophila cells: sufficient to inactivate Drosophila cells
[3]; Drosophila melanogaster, light or radiation study, read-out: inhibition of viability of xAPC cultures
  cytotoxicity at 5 µg/mL: ~50%
[3]; two weeks after UVADEX/UVA treatment, any treated culture
  viable xAPCs detected: almost no viable cells were detected
[4]; ten-minute UVA
  baculovirus titer of culture supernatant: no detectible baculovirus titer
[4]; twenty-minute UVA
  baculovirus titer of culture supernatant: no detectible baculovirus titer
[5]; 5 μg/ml for 10 minutes, dilutions 10^−1 to 10^−9, three-day incubation
  infection and lysis of indicator cell culture by serial dilutions of viral stock: almost completely incapable of infecting and lysing the indicator cell culture at all but the lowest dilution tested
[5]; viral stock treated 5 μg/ml for 10 minutes, three-day incubation
  indicator cell infection or lysis by microscopy: failed to result in any observable indicator cell infection or lysis
[6]; MyD88 knock-out (MyD88^−/−) mice
  percentage of CD8^+ T cells stained with K^b/OVA tetramer versus non-treated xAPCs: no increase
[6]; wild type (C57BL/6 (B6)) mice
  percentage of CD8^+ T cells stained with K^b/OVA tetramer versus non-treated xAPCs: higher percentage
[7]
  expression of HLA-A2, B7-1, and ICAM-1 in cocultures: undetectable levels
[8]
  surface expression level of the three exogenous molecules: essentially the same
[9]; Donor 1, MART-1 tetramer
  Percent p/MHC tetramers of CD8^+ T cells (% Tetr + CD8^+): 0.95%
[9]; Donor 2, MART-1 tetramer
  Percent p/MHC tetramers of CD8^+ T cells (% Tetr + CD8^+): 11.55%
[9]; Donor 3, MART-1 tetramer
  Percent p/MHC tetramers of CD8^+ T cells (% Tetr + CD8^+): 15.07%
[9]; Donor 4, MART-1 tetramer
  Percent p/MHC tetramers of CD8^+ T cells (% Tetr + CD8^+): 43.33%
[10]
  xenogenic HLA A2.1, B7-1, B7-2, and β2m transcripts: absence of detectable levels
